Reference: ChEMBL document CHEMBL1201862, “PubChem BioAssay data set” (2004)
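Method: 48-hour compound exposure of cells in 96-well plates, five concentrations, linear interpolation of endpoints. GI50 marks 50% less growth.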 Activity calls are given as the source filed them. Cut-off read from the data, not from the text of the source: active = GI50 up to about 1.1 µM and inactive = higher.

Legend:
Test in all cases: growth of human tumour cells (NCI), 48 h
DMS-114 = test system: DMS-114
SF-295 = test system: SF-295
EKVX = test system: EKVX
CAKI-1 = test system: CAKI-1
SNB-78 = test system: SNB-78
ACHN = test system: ACHN
HT-29 = test system: HT-29
DLD-1 = test system: DLD-1
NCI-H23 = test system: NCI-H23
UO-31 = test system: UO-31
HCC 2998 = test system: HCC 2998
HOP-92 = test system: HOP-92
NCI-H460 = test system: NCI-H460
SW-620 = test system: SW-620
SNB-75 = test system: SNB-75
KM12 = test system: KM12
HOP-62 = test system: HOP-62
NCI-H226 = test system: NCI-H226
RXF 393 = test system: RXF 393
COLO 205 = test system: COLO 205
RXF 631 = test system: RXF 631
A549 = test system: A549
OVCAR-5 = test system: OVCAR-5
SF-268 = test system: SF-268
HCT-116 = test system: HCT-116
SN12C = test system: SN12C
OVCAR-4 = test system: OVCAR-4
SK-MEL-2 = test system: SK-MEL-2
UACC-62 = test system: UACC-62
U-251 = test system: U-251
KM-20L2 = test system: KM-20L2
IGROV-1 = test system: IGROV-1
DMS-273 = test system: DMS-273
Malme-3M = test system: Malme-3M
UACC-257 = test system: UACC-257
SK-OV-3 = test system: SK-OV-3
A498 = test system: A498
SNB-19 = test system: SNB-19
HCT-15 = test system: HCT-15
M14 = test system: M14
SF-539 = test system: SF-539
K562 = test system: K562
HOP-18 = test system: HOP-18
OVCAR-8 = test system: OVCAR-8
HL-60 = test system: HL-60
M19-MEL = test system: M19-MEL
786-0 = test system: 786-0
SK-MEL-28 = test system: SK-MEL-28
RPMI-8226 = test system: RPMI-8226
OVCAR-3 = test system: OVCAR-3
SK-MEL-5 = test system: SK-MEL-5
NCI-H522 = test system: NCI-H522
TK-10 = test system: TK-10
MOLT-4 = test system: MOLT-4
LXFL 529 = test system: LXFL 529
LOX IMVI = test system: LOX IMVI

O=C1C=C(Nc2cc(Cl)ccc2Cl)c2ccccc2C1=O
GI50 (DMS-114): 25.5 µM (inactive)
GI50 (SF-295): 25.1 µM (inactive)
GI50 (EKVX): > 100 µM (inactive)
GI50 (CAKI-1): 32.2 µM (inactive)
GI50 (SNB-78): > 100 µM (inactive)
GI50 (ACHN): 26.1 µM (inactive)
GI50 (HT-29): 86.9 µM (inactive)
GI50 (DLD-1): 45.3 µM (inactive)
GI50 (NCI-H23): 20.7 µM (inactive)
GI50 (UO-31): 23.9 µM (inactive)
GI50 (HCC 2998): 27.5 µM (inactive)
GI50 (HOP-92): 20.4 µM (inactive)
GI50 (NCI-H460): 25.9 µM (inactive)
GI50 (SW-620): 29.3 µM (inactive)
GI50 (SNB-75): 25.9 µM (inactive)
GI50 (KM12): 23 µM (inactive)
GI50 (HOP-62): 26.1 µM (inactive)
GI50 (NCI-H226): 23.9 µM (inactive)
GI50 (RXF 393): 55.5 µM (inactive)
GI50 (COLO 205): 36.1 µM (inactive)
GI50 (RXF 631): > 100 µM (inactive)
GI50 (A549): 35.9 µM (inactive)
GI50 (OVCAR-5): 39 µM (inactive)
GI50 (SF-268): 64.3 µM (inactive)
GI50 (HCT-116): 34.1 µM (inactive)
GI50 (SN12C): 38.5 µM (inactive)
GI50 (OVCAR-4): 47.6 µM (inactive)
GI50 (SK-MEL-2): 15.4 µM (inactive)
GI50 (UACC-62): 16.9 µM (inactive)
GI50 (U-251): 25.2 µM (inactive)
GI50 (KM-20L2): > 100 µM (inactive)
GI50 (IGROV-1): 64.1 µM (inactive)
GI50 (DMS-273): 21.3 µM (inactive)
GI50 (Malme-3M): 19.4 µM (inactive)
GI50 (UACC-257): 24 µM (inactive)
GI50 (SK-OV-3): 51.6 µM (inactive)
GI50 (A498): 26.6 µM (inactive)
GI50 (SNB-19): 46.2 µM (inactive)
GI50 (HCT-15): 26.5 µM
GI50 (M14): 19.9 µM (inactive)
GI50 (SF-539): 33.3 µM (inactive)
GI50 (K562): 13.5 µM (inactive)
GI50 (HOP-18): 22.6 µM (inactive)
GI50 (OVCAR-8): 16 µM (inactive)
GI50 (HL-60): 15.8 µM (inactive)
GI50 (M19-MEL): 15.7 µM (inactive)
GI50 (786-0): 34.8 µM (inactive)
GI50 (SK-MEL-28): 38.6 µM (inactive)
GI50 (RPMI-8226): 20.9 µM (inactive)
GI50 (OVCAR-3): 23 µM (inactive)

[O-][Cl+3]([O-])([O-])[O-].c1ccc(-c2[o+]c(-c3ccccc3)c(-c3ccccc3)c(-c3ccccc3)c2-c2ccccc2)cc1
GI50 (SF-295): > 100 µM (inactive)
GI50 (EKVX): > 100 µM (inactive)
GI50 (CAKI-1): > 100 µM (inactive)
GI50 (SNB-78): > 100 µM (inactive)
GI50 (ACHN): > 100 µM (inactive)
GI50 (HT-29): > 100 µM (inactive)
GI50 (DLD-1): > 100 µM (inactive)
GI50 (NCI-H23): > 100 µM (inactive)
GI50 (UO-31): > 100 µM (inactive)
GI50 (HCC 2998): > 100 µM (inactive)
GI50 (HOP-92): > 100 µM (inactive)
GI50 (NCI-H460): > 100 µM (inactive)
GI50 (SW-620): > 100 µM (inactive)
GI50 (SNB-75): > 100 µM (inactive)
GI50 (SK-MEL-5): > 100 µM (inactive)
GI50 (HOP-62): > 100 µM (inactive)
GI50 (NCI-H226): > 100 µM (inactive)
GI50 (RXF 393): 12 µM (inactive)
GI50 (COLO 205): > 100 µM (inactive)
GI50 (RXF 631): > 100 µM (inactive)
GI50 (A549): > 100 µM (inactive)
GI50 (NCI-H522): > 100 µM (inactive)
GI50 (OVCAR-5): > 100 µM (inactive)
GI50 (SF-268): > 100 µM (inactive)
GI50 (HCT-116): > 100 µM (inactive)
GI50 (SN12C): > 100 µM (inactive)
GI50 (OVCAR-4): > 100 µM (inactive)
GI50 (TK-10): > 100 µM (inactive)
GI50 (SK-MEL-2): > 100 µM (inactive)
GI50 (UACC-62): > 100 µM (inactive)
GI50 (U-251): > 100 µM (inactive)
GI50 (KM-20L2): > 100 µM (inactive)
GI50 (IGROV-1): > 100 µM (inactive)
GI50 (MOLT-4): 44.7 µM (inactive)
GI50 (DMS-273): > 100 µM (inactive)
GI50 (Malme-3M): > 100 µM (inactive)
GI50 (UACC-257): > 100 µM (inactive)
GI50 (LXFL 529): > 100 µM (inactive)
GI50 (SK-OV-3): > 100 µM (inactive)
GI50 (A498): > 100 µM (inactive)
GI50 (HCT-15): > 100 µM
GI50 (M14): > 100 µM (inactive)
GI50 (SF-539): > 100 µM (inactive)
GI50 (LOX IMVI): > 100 µM (inactive)
GI50 (HOP-18): > 100 µM (inactive)
GI50 (OVCAR-8): > 100 µM (inactive)
GI50 (HL-60): > 100 µM (inactive)
GI50 (M19-MEL): > 100 µM (inactive)
GI50 (786-0): > 100 µM (inactive)
GI50 (SK-MEL-28): > 100 µM (inactive)
GI50 (RPMI-8226): 24.9 µM (inactive)
GI50 (OVCAR-3): > 100 µM (inactive)
